Earlier results as cited in patent publication US6713027B2, “Ozonator for sterilizing, decontaminating, disinfecting, and/or sanitizing surgical instruments” (Electroclave, priority 2001, dated 2004).

Tested on: pathogenic bacteria and viruses
Settings: in water; compared with chlorine

For `O=[O+][O-]` [O3, ozone], the “rate of eliminating pathogenic bacteria and viruses from water relative to Cl (chlorine)” value is given as 3,125 times.
